Series [1] is described as follows: Apparent intrinsic clearance in human hepatocytes assessed per million of cells. Type of series: ADME, cell-based, Liver, Hepatocyte.
The nature of series [2]: Apparent intrinsic clearance in human liver microsomes assessed per mg of protein. Type of series: ADME, Microsome. In general terms: Liver microsomes are a subcellular fraction often used to study metabolism.
Series [3] addresses T1, Solute carrier family 22 member 2 (Homo sapiens, UniProt O15244).
T1 sequence (O15244 whole entry): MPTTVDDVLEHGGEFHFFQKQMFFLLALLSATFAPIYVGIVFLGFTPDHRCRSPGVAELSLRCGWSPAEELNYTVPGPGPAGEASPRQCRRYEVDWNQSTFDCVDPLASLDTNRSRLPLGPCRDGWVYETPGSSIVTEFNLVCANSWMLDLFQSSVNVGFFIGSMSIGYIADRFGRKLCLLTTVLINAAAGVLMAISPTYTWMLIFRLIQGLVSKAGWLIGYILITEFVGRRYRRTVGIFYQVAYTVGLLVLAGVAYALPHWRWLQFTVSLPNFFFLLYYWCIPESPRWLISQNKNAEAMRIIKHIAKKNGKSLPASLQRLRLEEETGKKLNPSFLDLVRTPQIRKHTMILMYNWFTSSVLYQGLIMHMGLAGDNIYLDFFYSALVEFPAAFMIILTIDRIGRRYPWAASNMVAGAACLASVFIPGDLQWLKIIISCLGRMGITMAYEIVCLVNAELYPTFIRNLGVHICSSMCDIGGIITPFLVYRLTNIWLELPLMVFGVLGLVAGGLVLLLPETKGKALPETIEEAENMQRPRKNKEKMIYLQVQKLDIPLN
Kind of series: Inhibition of human OCT2.

Series [4] relates to Plasma. As to the kind of experiment: Fraction unbound in human plasma at 1000 ng/mL by equilibrium dialysis method. It is filed as ADME, cell-free. In general terms: In equilibrium dialysis free small molecules cross a membrane that holds back macromolecules.
A short description of series [5]: Tmax in Sprague-Dawley rat at 5 mg/kg, po. The conditions noted are these: in vivo. Further details: dose 5 mg/kg, route oral; call rule not given here. Type of series: ADME, organism-based.
Series [6] deals with T2, Organic anion transporter 3 (Homo sapiens, UniProt Q8TCC7).
T2 sequence (Q8TCC7 whole entry): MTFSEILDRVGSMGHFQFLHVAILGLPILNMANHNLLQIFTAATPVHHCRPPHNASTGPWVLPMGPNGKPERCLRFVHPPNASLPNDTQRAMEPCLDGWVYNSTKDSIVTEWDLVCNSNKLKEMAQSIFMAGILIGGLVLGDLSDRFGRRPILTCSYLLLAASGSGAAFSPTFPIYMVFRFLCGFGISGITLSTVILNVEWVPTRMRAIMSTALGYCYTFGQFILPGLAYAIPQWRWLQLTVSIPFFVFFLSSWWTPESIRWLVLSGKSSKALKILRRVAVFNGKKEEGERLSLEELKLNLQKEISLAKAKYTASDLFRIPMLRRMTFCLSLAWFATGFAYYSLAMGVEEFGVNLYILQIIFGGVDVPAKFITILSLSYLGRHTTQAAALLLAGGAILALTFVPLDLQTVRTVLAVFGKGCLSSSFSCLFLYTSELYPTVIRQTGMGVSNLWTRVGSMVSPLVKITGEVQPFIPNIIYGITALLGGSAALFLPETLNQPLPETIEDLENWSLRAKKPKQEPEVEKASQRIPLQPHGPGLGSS
Kind of series: Inhibition of human OAT3.

Series [7] concerns the target T3, Solute carrier family 22 member 2 (Rattus norvegicus, UniProt Q9R0W2).
T3 sequence (Q9R0W2 whole entry): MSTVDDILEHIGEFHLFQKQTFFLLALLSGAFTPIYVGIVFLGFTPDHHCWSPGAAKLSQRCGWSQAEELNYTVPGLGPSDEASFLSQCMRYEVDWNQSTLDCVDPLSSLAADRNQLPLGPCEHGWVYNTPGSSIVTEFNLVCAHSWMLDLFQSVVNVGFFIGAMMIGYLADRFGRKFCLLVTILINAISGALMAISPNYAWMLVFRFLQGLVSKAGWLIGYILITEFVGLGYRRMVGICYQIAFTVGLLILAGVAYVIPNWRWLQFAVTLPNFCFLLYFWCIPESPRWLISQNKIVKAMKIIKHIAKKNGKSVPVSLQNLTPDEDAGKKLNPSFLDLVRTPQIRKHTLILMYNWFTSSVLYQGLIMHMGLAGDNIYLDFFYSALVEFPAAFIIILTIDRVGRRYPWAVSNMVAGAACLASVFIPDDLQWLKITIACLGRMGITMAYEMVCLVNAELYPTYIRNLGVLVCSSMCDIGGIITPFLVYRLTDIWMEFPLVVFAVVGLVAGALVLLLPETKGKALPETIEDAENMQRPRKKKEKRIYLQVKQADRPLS
Kind of series: Inhibition of rat OCT2 expressed in HEK293 cells. Type of series: cell-based.

A short description of series [8]: Lipophilicity, log D of the compound. The settings on record: octanol/water. Type of series: physicochemical.
The target of series [9] is T4, Solute carrier family 22 member 6 (Homo sapiens, UniProt Q4U2R8).
T4 sequence (Q4U2R8 whole entry): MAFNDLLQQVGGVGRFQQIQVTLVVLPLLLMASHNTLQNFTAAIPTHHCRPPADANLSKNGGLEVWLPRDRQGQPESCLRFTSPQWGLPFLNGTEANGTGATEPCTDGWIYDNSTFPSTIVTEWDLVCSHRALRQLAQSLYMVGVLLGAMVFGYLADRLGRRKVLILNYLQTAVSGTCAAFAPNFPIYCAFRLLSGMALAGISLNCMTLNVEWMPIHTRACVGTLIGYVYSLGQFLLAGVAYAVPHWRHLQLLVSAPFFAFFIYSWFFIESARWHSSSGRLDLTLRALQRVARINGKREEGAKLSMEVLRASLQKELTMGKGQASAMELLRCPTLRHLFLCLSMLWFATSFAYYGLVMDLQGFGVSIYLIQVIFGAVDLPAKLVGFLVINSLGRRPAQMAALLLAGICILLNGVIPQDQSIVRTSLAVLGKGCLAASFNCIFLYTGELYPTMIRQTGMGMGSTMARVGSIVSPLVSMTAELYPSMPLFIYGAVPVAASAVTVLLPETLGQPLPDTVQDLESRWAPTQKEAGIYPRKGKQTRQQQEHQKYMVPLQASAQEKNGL
As to the kind of experiment: Inhibition of human OAT1.

Series [10] addresses T5, Solute carrier family 22 member 3 (Rattus norvegicus, UniProt O88446).
T5 sequence (O88446 whole entry): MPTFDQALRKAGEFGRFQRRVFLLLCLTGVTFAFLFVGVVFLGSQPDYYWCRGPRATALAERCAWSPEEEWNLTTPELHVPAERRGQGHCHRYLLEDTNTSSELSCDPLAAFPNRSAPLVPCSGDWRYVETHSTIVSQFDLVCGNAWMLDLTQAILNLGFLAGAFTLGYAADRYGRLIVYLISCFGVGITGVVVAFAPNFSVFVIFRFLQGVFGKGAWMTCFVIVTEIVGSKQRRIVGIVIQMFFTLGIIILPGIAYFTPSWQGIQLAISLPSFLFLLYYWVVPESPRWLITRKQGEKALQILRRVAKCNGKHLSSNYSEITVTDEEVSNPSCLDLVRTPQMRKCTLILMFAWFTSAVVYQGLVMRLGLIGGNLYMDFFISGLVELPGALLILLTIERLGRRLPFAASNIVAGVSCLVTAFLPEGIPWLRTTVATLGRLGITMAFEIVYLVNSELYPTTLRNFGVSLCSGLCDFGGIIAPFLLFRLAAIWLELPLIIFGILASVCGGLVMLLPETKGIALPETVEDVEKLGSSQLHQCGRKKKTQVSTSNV
As to the kind of experiment: Inhibition of rat OCT3 expressed in HEK293 cells. Type of series: cell-based.

Series [11] deals with Rattus norvegicus. Kind of series: Antidiabetic activity in po dosed Sprague-Dawley rat assessed as increase of urinary glucose excretion after 24 hrs. Type of series: functional, organism-based. The conditions noted are these: Urine.

This note sets out measurements from ChEMBL document CHEMBL1770065, “Discovery of a clinical candidate from the structurally unique dioxa-bicyclo[3.2.1]octane class of sodium-dependent glucose cotransporter 2 inhibitors” (J Med Chem, 2011).

For orientation: hepatocyte CLint means the capacity of the preparation to metabolise the compound, expressed as a volume cleared per time. For orientation: microsomal CLint means the rate of metabolic loss divided by the concentration. Broadly, the Tmax is the time from dosing to the highest level. As usually defined, the logD is the decadic logarithm of the distribution of all forms, ionised or not, between an organic phase and buffer at a given pH.

Consider `CCOc1ccc(Cc2cc([C@]34OC[C@](CO)(O3)[C@@H](O)[C@H](O)[C@H]4O)ccc2Cl)cc1` [ERTUGLIFLOZIN], for which, in series [1], the hepatocyte CLint was found to be 4.5 µL/min/1e6 cells. Also, the microsomal CLint in [2] was determined as 12 µL/min/mg. Besides, the “inhibition (INH)” value in series [3], in series [6], in [7], in series [9] and in series [10] was “Not Active” throughout. For the same molecule, in series [4], the Fu came out at 6.4%. Further, the Tmax in [5] came to 1 h. Moreover, the logD in series [8] is 3.6. The Activity result in [11] was “Dose-dependent effect”.
